Common to all, as to assay type: binding
One assay deals with T1, rNedd4-WW2 (Rattus norvegicus, UniProt Q62940).
T1 construct: GST fusion proteins of the second and third WW domains (WW2 and WW3/4) of rNedd4; GST (N, cleaved yes); made in house; host or cells: E. coli BL21(DE3)
The assay can be described thus: Isothermal titration calorimetry, rNedd4-WW2. The following applies: ITC, 25 °C, 10 mM sodium phosphate, pH 7.4; mean of three separate runs ± one SD. Here is the method:
(§1) In order to compare the affinities between the U24 proteins and WW domains, the equilibrium dissociation constant (KD) for the interaction between each U24:Nedd4-WW domain pair tested above was determined using ITC. […] ITC experiments using these peptides as titrants were carried out on Nedd4-WW domains in 10 mM sodium phosphate, pH 7.4, at 25 °C. Control experiments in which the phosphate buffer was titrated into the protein solutions were also conducted to ensure the proteins were stable during the titration with peptide.
(§2) Two cDNA clones containing human E3 ubiquitin-protein ligase Nedd4 (KIAA0093) and Nedd4-like protein (KIAA0439) were ordered from Kazusa DNA research institute (Chiba, Japan). The DNA fragment of the third WW domain of both proteins was amplified and inserted into BamHI and XhoI sites of pGEX-4T2 vector (GE Healthcare). […]
(§3) After overnight dialysis, the cleaved Nedd4 WW domains in phosphate buffer, with different salt concentrations, were ready for use in ITC experiments. […] The concentration of the sample was determined by the absorbance at 280 nm in 6 M Guanidine HCl on a UV-Vis spectrophotometer, and calculated using the theoretical extinction coefficient obtained from the ProtParam tool[51]. […] The peptide amounts were determined gravimetrically and calibrated according to the absorbance at 280 nm in 6 M Guanidine HCl. […]
A general note: Isothermal titration calorimetry measures the heat released or taken up as one component is titrated into another.

In the next assay the target is T2, rNedd4-WW3/4 (Rattus norvegicus, UniProt Q62940).
T2 construct: GST fusion proteins of the second and third WW domains (WW2 and WW3/4) of rNedd4; GST (N, cleaved yes); made in house; host or cells: E. coli BL21(DE3)
The assay can be described thus: Isothermal titration calorimetry, rNedd4-WW3/4. The settings on record: ITC, 25 °C, 10 mM sodium phosphate. Here is the method: as §1
Importantly, this is the tightest affinity characterized to date between a U24 peptide ligand and WW domains.
In order to find out whether electrostatic interactions play a role in the binding of the three U24 peptides tested here to the Nedd4-WW domains, a set of ITC experiments were performed as a function of increasing salt concentration, 0 mM, 100 mM and 500 mM, in 10 mM sodium phosphate, pH 7.4, at 25 °C, for rNedd4-WW3/4 and hNedd4L-WW3*. Affinities and molar binding enthalpies (ΔH) for each U24:WW-domain pair as a function of salt concentration are plotted in Supplementary Fig. 2 and Fig. 3c and d, respectively.
(§4) Two cDNA clones containing human E3 ubiquitin-protein ligase Nedd4 (KIAA0093) and Nedd4-like protein (KIAA0439) were ordered from Kazusa DNA research institute (Chiba, Japan). The DNA fragment of the third WW domain of both proteins was amplified and inserted into BamHI and XhoI sites of pGEX-4T2 vector (GE Healthcare). The plasmids containing GST fusion proteins of the second and third WW domains (WW2 and WW3/4) of rNedd4 were kind gifts from Dr. Julie D. Forman-Kay (Hospital for Sick Children, Toronto). All plasmids were transformed into E. coli BL21(DE3) for expression at 25 °C for 16 hours using a final concentration of 400 μM IPTG. ^15N labelled protein was expressed in M9 media supplemented with ^15N labelled NH4Cl. The cells were harvested by centrifugation and stored in the −80 °C freezer until further use. The cell paste from approximately 600 mL culture was thawed on ice and resuspended in 10 mL PBS supplemented with 1% Triton X-100 (PBS/Triton buffer). Lysozyme, protease inhibitor and DNAse were added in the mixture. The mixture was incubated on ice for half an hour, then was lysed in an ice bath by sonication. After being centrifuged at 9,000 rpm for 1 hour, the supernatant was filtered using a 0.45 μm filter, and then applied to 2 mL of PBS washed Glutathione Sepharose 4B resin (GE Healthcare, GST 4B resin). The resin slurry with cell lysate was incubated for 2 hours at room temperature, and then washed with PBS/Triton buffer six times. The resin was collected by centrifugation at 600 × g for 5 minutes.
In order to obtain WW domains without the GST tag, the proteins were extracted and immobilized on GST 4B resin as described above. The resin was washed three times with PBS buffer, after the washing with PBS/Triton buffer. 3 mL PBS buffer and 150 units of thrombin (GE Healthcare) were added into the pelleted resin and the slurry was incubated at room temperature for 16 hours. The supernatant containing cleaved WW domains were collected on the second day by centrifugation. The residual thrombin in this fraction was removed using p-Aminobenzamidine-agarose (Sigma-Aldrich) and fresh GST 4B resin was used to remove the GST contaminants. The WW domain containing fraction was dialyzed at 4 °C against 2 L phosphate buffer (10 mM sodium phosphate, pH 7.4) using 2,000 MWCO dialysis membrane overnight for ITC or NMR experiments, or phosphate buffer with various salt concentrations (phosphate buffer with 100 mM or 500 mM NaCl) for ITC experiments.
After overnight dialysis, the cleaved Nedd4 WW domains in phosphate buffer, with different salt concentrations, were ready for use in ITC experiments. The dialysis buffer was kept as a sample-free buffer to measure the heats of dilution. […]

A further assay addresses T3, hNedd4-WW3* (Homo sapiens, UniProt P46934).
T3 construct: The DNA fragment of the third WW domain of both proteins was amplified; GST (N, cleaved yes); made in house; host or cells: E. coli BL21(DE3)
The assay can be described thus: Isothermal titration calorimetry, hNedd4-WW3*. The settings on record: ITC, 25 °C, 10 mM sodium phosphate, pH 7.4; mean of three separate runs ± one SD. As for the experimental part: as §1, §2, §3

For a further assay, the target named is T4, hNedd4L-WW3* (Homo sapiens, UniProt Q96PU5).
T4 construct: The DNA fragment of the third WW domain of both proteins was amplified; GST (N, cleaved yes); made in house; host or cells: E. coli BL21(DE3)
The assay can be described thus: Isothermal titration calorimetry, hNedd4L-WW3*. The settings on record: ITC, 25 °C, 10 mM sodium phosphate. As for the experimental part:
as §1
In order to find out whether electrostatic interactions play a role in the binding of the three U24 peptides tested here to the Nedd4-WW domains, a set of ITC experiments were performed as a function of increasing salt concentration, 0 mM, 100 mM and 500 mM, in 10 mM sodium phosphate, pH 7.4, at 25 °C, for rNedd4-WW3/4 and hNedd4L-WW3*.
as §4
In order to obtain WW domains without the GST tag, the proteins were extracted and immobilized on GST 4B resin as described above. The resin was washed three times with PBS buffer, after the washing with PBS/Triton buffer. […]
After overnight dialysis, the cleaved Nedd4 WW domains in phosphate buffer, with different salt concentrations, were ready for use in ITC experiments. […]

The mark [1] stands for this setting: pH 7.4, extra 100 mM NaCl, three runs.
Where [2] appears, read: pH 7.4, extra 500 mM NaCl, three runs.
Setting [3] is: pH 7.4, mean of three separate runs ± one SD.

No end group written: not given here.

T4 sequence (Q96PU5 497-530 limits assumed): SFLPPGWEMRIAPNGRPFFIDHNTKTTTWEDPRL
T2 sequence (Q62940 459-492 limits assumed): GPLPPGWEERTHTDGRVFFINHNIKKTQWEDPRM
T3 sequence (P46934 840-873 limits assumed): as the sequence (Q96PU5 497-530 limits assumed) above, with S1G, P5K, M9V, I11H counted along it
T1 sequence (Q62940 402-435 limits assumed): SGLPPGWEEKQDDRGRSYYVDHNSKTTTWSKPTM

Usually Kd stands for a measure of binding affinity in units of concentration. Low values mean tighter binding, high ones weaker binding. For `CSCC[C@H](N)C(=O)N[C@@H](CC(=O)O)C(=O)N1CCC[C@H]1C(=O)N1CCC[C@H]1C(=O)N[C@@H](CCCNC(=N)N)C(=O)N[C@H](C(=O)N1CCC[C@H]1C(=O)N1CCC[C@H]1C(=O)N1CCC[C@H]1C(=O)N[C@@H](CO)C(=O)N[C@@H](Cc1ccc(O)cc1)C(=O)N[C@@H](CO)C(=O)N[C@@H](CCC(=O)O)C(=O)N[C@H](C(=O)N[C@@H](CC(C)C)C(=O)O)C(C)C)[C@@H](C)O` [U24-6A], the Kd at rNedd4-WW2 amounted to 155 ± 12 µM; at rNedd4-WW3/4 (setting [1]), 35.7 µM; at rNedd4-WW3/4 (setting [2]), 30.6 µM; on hNedd4-WW3* it was 9.7 ± 0.2 µM; at hNedd4L-WW3* (setting [1]) it was 6.9 µM; on hNedd4L-WW3* (setting [2]), 6.1 µM. The same compound had a dissociation constant Kd at hNedd4L-WW3* (setting [3]) of 6.3 ± 0.3 µM.
In the case of `CSCC[C@H](N)C(=O)N[C@@H](CC(=O)O)C(=O)N1CCC[C@H]1C(=O)N1CCC[C@H]1C(=O)N[C@@H](CCCNC(=N)N)C(=O)N[C@H](C(=O)N1CCC[C@H]1C(=O)N1CCC[C@H]1C(=O)N1CCC[C@H]1C(=O)N[C@@H](CO)C(=O)N[C@@H](Cc1ccc(O)cc1)C(=O)N[C@@H](CO)C(=O)N[C@@H](CCC(=O)O)C(=O)N[C@H](C(=O)N[C@@H](CC(C)C)C(=O)O)C(C)C)[C@@H](C)OP(=O)(O)O` [pU24-6A], the Kd at rNedd4-WW3/4 (setting [1]) turned out to be 12 µM; on rNedd4-WW3/4 (setting [2]) it was 9.5 µM.
At hNedd4L-WW3* (setting [3]), “IKHEPENPPPYEEAM [Nogo-A, reference compound]” showed a Kd of 4 ± 0.2 µM.
For MTHETPPPSYNDVML [U24-7], the Kd worked out at 87 ± 5 µM on rNedd4-WW2; 14.6 µM at rNedd4-WW3/4 (setting [1]); 13.2 µM on rNedd4-WW3/4 (setting [2]); 21 ± 0.5 µM at rNedd4-WW3/4 (setting [3]); 1.98 ± 0.04 µM on hNedd4-WW3*.

Source of the values: PMC5209733, “U24 from Roseolovirus interacts strongly with Nedd4 WW Domains” (Scientific Reports, 2017).
